# Measured values reported in a melting point compilation (Tetko et al.; mined from patent text by program, amines drawn as free bases though some values may be those of a salt).
row,SMILES,melting point
1,CC1(C)[C@@H](CNC(=O)c2ccccc2F)CC[C@@]1(C)NCC(=O)N1C[C@@H](F)C[C@H]1C#N,123 to 127 °C
2,CC1(C)Oc2ccc(S(=O)(=O)C(F)(F)F)cc2C(N2Cc3cccc([N+](=O)[O-])c3C2=O)C1O (stereo unspecified),283 to 284 °C
3,CC(=O)Oc1cc(OC(C)=O)c2ccc(=O)[nH]c2c1,230 to 232 °C
4,CCOC(=O)CCNC(=O)c1n[nH]cc1NC(=O)c1cccc(C)n1,228 to 229 °C
5,Cc1ccc(C(=O)c2cc(C(C)(C)C)c(O)c(C(C)(C)C)c2)c(Cl)n1,116 to 117 °C
6,CCOC(=O)c1ccc2c(SC(=O)N(C)C)cccn2c1=O,119 to 121 °C
7,CSc1cccc(-n2cnc(C(=O)O)c2)c1,190 to 192 °C
8,COc1cc(C=C(C=O)C(C=O)=Cc2ccc(O)c(OC)c2)ccc1O,177 to 178 °C
9,CCCCCCc1ccc(C(=O)N2CCOCC2)cc1[N+](=O)[O-],68.5 to 71.5 °C
10,OC(CC1CCN(CC2CC2)CC1)(c1ccc(F)cc1)c1ccc(F)cc1,119 to 121 °C
11,CCC(=O)c1cc(-c2cccc(O)c2)cs1,112 °C
12,Cc1ccc(N2CN(C)CNC2=S)cc1,176 to 178 °C
13,CC(C)(C)OC(=O)Nc1ccncc1N,124 to 126 °C
14,ClC=C(c1ccc(Cl)cc1)c1ccc(Cl)cc1,65 to 67 °C
15,CC(=O)Oc1nsnc1-c1c(Cl)cccc1Cl,56 to 59 °C
16,C1=Cc2c(ccc3cccnc23)OC1,207 to 208 °C
17,COc1cc(OC)cc(C(=CC#N)c2ccc3c(c2)nc(C)n3C)c1,199 to 201 °C
18,O=C(O)Cc1ccc(NC(=O)C=C2CC(C(=O)O)Nc3cc(Cl)cc(Cl)c32)cc1 (racemic),> 220 °C
19,O=Cc1cc([N+](=O)[O-])cc(Cl)c1S,84 to 89 °C
20,CCC(=O)Nc1cc(OC)cc2c1CC(C)O2 (stereo unspecified),101 °C
21,CC(=O)SCC(C(=O)NC(CC(=O)O)Cc1ccccc1)C(F)(F)F (stereo unspecified),171 to 172 °C
22,Cc1ccc2c(c1)Sc1ccc(F)cc1C(N1CCN(CCN3CCOC3=O)CC1)C2 (stereo unspecified),147 to 149 °C
23,CC(C)[C@@H](NCC1(O)OC[C@@H](O)[C@@H](O)[C@@H]1O)C(=O)O (stereo partly specified),125 to 126 °C

row,SMILES,melting point
1,CC(C)(C)OC(=O)N1CCC2(CC1)c1ccccc1CS2=O (stereo unspecified),103 to 107 °C
2,OC(c1ccccc1)C1CCN(CCCc2ccccc2)CC1 (stereo unspecified),87 to 88 °C
3,COc1ccc2c(c1)C(=O)N(c1ccc3c(ccn3C)n1)C2,230 to 234 °C
4,CC(C)(C)OC(=O)N1CCC(CC[C@@H]2CCCNC2=O)CC1,110 to 111 °C
5,CCOc1ccccc1C=[N+]([O-])C1CCC1,76 °C
6,COC(=O)CC(C)C1CCC2C3CC=C4CC(O)CC(O)C4(C)C3CCC12C (stereo unspecified),144 to 146 °C
7,CC#CCOc1cc(Oc2cccc(C#N)c2)ncn1,121 °C
8,COC(=O)c1ccc(-c2csc(-c3ccc4c(c3)C(C)(C)CCC4(C)C)c2)cc1,108 to 110 °C
9,CCCCc1c(C(=O)O)sc2ccc([N+](=O)[O-])cc12,238 to 240 °C
10,CSc1nnc(-c2ccccc2CS(N)(=O)=O)o1,138 to 140 °C
11,CCOC(=O)Cc1cccc(-c2nc(CCl)c(C)o2)c1,64 to 65 °C
12,COc1ccc(O)c2c1C1(CCC2)OCCO1,139 to 140 °C
13,CCOC(=O)CC(=O)Nc1ccc([N+](=O)[O-])cc1,102 to 103 °C
14,CC12CC(F)C3C4CCC(=O)C=C4CC(CCCCCBr)C3C1CCC2=O (stereo unspecified),75 to 76 °C
15,Cc1sc2ccccc2c1C=O,95 to 96 °C
16,C1=C(c2ccc3c(c2)OCO3)CCC2(C1)OCCO2,75 to 76 °C
17,CN1CCC(Oc2cccc(C(=O)Nc3cc(NC(=O)c4ccc(C#N)cc4)ccc3Cl)c2)CC1,177 to 179 °C
18,O=C(Nc1ccccc1C(F)(F)F)c1c(O)c2ccccc2oc1=O,157 to 159 °C
19,N#Cc1ccc(C(=O)[C@H]2C[C@H]2C(=O)O)cc1 (relative stereo),180 to 182 °C
20,N#Cc1ccc2c(c1)CN1C(=Nc3cccnc3)SC[C@@H]1C2,172 °C
21,CC12CCC3C(CC(O)C4CC(=O)CCC43C)C1CCC2O (stereo unspecified),195 to 205 °C
22,Cc1cc(Cl)c(OCCO)cc1Nc1nnc2n1[C@H](c1ccc(F)cc1)COC2,161 to 162 °C
23,O=[N+]([O-])c1cccc2c1c([N+](=O)[O-])cc1nc(O)c(O)nc12,> 300 °C

row,SMILES,melting point
1,CC1(C)Oc2c(N)ccc(Cl)c2C1=O,71 to 73 °C
2,COc1ccccc1[C@H](c1cccc2ccccc12)[C@@](C)(C#N)C(=O)N1CCC(C2CCCC(C(F)(F)F)C2)CC1 (stereo partly specified),160 to 165 °C
3,O=C(Nn1c(=O)c(=O)[nH]c2cc(C(F)(F)F)c([N+](=O)[O-])cc21)C(F)(F)F,> 250 °C
4,NC(=O)CCCCCCCCCCCNC(N)=NC(=O)c1nc(Cl)c(N)nc1N,192 to 194 °C
5,CC1(C)NC(=O)N(c2ccc([N+](=O)[O-])cc2C(F)(F)F)C1=O,175 to 176 °C
6,OC1CSC(Oc2cc(-c3ccnc(F)c3)cc(F)c2F)C(O)C1O (stereo unspecified),184 °C
7,O=C(Nc1ncnc2c1ncn2C[C@@H]1O[C@H](CO)[C@@H](O)[C@H]1O)c1ccccc1,85 to 90 °C
8,ClCCOc1cccc2[nH]ccc12,60 °C
9,CCc1nn(C2CCCC2)c2cc(C(=O)NCc3ccncc3)ccc12,147 to 149 °C
10,Oc1cccc2sncc12,133 to 134 °C
11,OCc1cnc2ccc(F)cc2c1O,310 to 315 °C
12,CCn1cc(C(=O)O)c(=O)c2cn(C)nc21,273 to 275 °C
13,C[C@H]1C(=O)NC2CCC(=O)N21 (stereo partly specified),84 to 86 °C
14,CCOc1cc(Oc2ccc(C(F)(F)F)cn2)ccc1CCCOc1nn(CC)cc1CC(=O)O,82 to 83 °C
15,Cc1ccccc1C(F)(F)C(F)(F)c1ccccc1C,71.5 to 73.5 °C
16,CC1(C)C(=O)N(Cc2ccccc2)C(=O)N1CC#CI,83 to 85 °C
17,CCOC(=O)C(C)Oc1ccc(Nc2ccc(C(F)(F)F)cc2N)cc1 (stereo unspecified),78 °C
18,CCOC(=O)c1cnc2ccc(Cl)cc2c1O,> 260 °C
19,C=C1N(C)C(=O)OC12CCN(CC=C(c1ccccc1)c1ccccc1)CC2,126 to 127 °C
20,CCn1cc(C(=O)O)c(=O)c2c(F)c(F)c(N3CCCC3)c(F)c21,> 320 °C
21,O=C1NC(=O)c2c1ccc(N1C(=O)C=CC1=O)c2N1C(=O)C=CC1=O,180 to 200 °C

# The remaining lines, values ahead:
row,melting point,SMILES
1,129 to 130 °C,CCN(C)C(C)C(=O)Nc1cccc2c1C(=O)c1c(NC(=O)C(C)N(C)CC)cccc1C2=O (stereo unspecified)
2,255 to 256 °C,Cc1ccc(-c2ccc3c(c2)C=C(C(=O)O)CCO3)cc1
3,297 to 298 °C,O=C(O)c1ccc(-c2cc(-c3ccccc3)on2)cc1
4,219 to 220 °C,Cn1c2ccccc2c2nc3c(C=O)cccc3nc21
5,139 to 141 °C,Cc1ccccc1OCC(O)CNCCOc1ccc(C(N)=O)cn1 (stereo unspecified)
6,242 °C,COC(=O)C1=C(C)NC(C)=C(C#N)C1c1cccc2ncc(-c3ccccc3)cc12 (stereo unspecified)
7,70 to 73 °C,COC(=O)CCNc1ccccc1CNC(=O)C1Cc2ccccc2N1S(=O)(=O)c1ccc(-c2ccc(F)cc2Cl)cc1 (stereo unspecified)
8,304 to 305 °C,CCCC1(CCC)c2ccccc2-c2cc3c(cc21)OCN3c1c(O)ccc2oc3ccccc3c12
9,170 °C,CN(CCCN1CCN(c2ccccc2C2CC2)CC1)c1nccc(C(N)=O)n1
10,122 to 124 °C,C=CCOc1cc(C)ccc1N1C(=O)c2ccccc2C1=O
11,262 to 263 °C,COc1cc(Nc2c(C#N)cnc3cc(-c4cccc(NC(C)=O)c4)ccc23)c(Cl)cc1Cl
12,120 to 122 °C,Nc1ccc(F)c(C(=O)Nc2ccccc2)c1
13,218 to 219 °C,O=C(O)c1cc(-c2ccc(OCc3ccccc3)cc2OCc2ccccc2)n[nH]1
14,100 to 102 °C,O=C(N[C@@H](Cc1c[nH]c2ccccc12)C(=O)O)c1ccc(Cl)cc1
15,217 to 219 °C,Nc1ncccc1-c1nc2cc(-c3cccnc3)cnc2n1-c1ccc(CNS(=O)(=O)c2ccccc2)cc1
16,165 to 169 °C,CN1CCN(c2cc(Cl)cc3c2c(=O)n(Cc2cccc(Cl)c2)c(=O)n3Cc2ccccc2)CC1
17,101 to 103 °C,O=C(O)C=C(C(=O)c1ccc(Cl)c(Cl)c1)c1ccccc1

row,melting point,SMILES
1,202 to 204 °C,CCCN(Cc1ccc(-c2ccccc2-c2nnn[nH]2)cc1)c1ncccc1C(=O)O
2,69 to 70 °C,CCOC(=O)Cc1nc(-c2ccc(Cl)cc2)oc1C
3,158 °C,COC(=O)c1ccc(CNc2ccc(C)c(Nc3nccc(-c4cccnc4)n3)c2)cc1
4,130 to 133 °C,Cc1cccc(-c2ccc(NC(=O)Nc3ccc(Oc4cc(N)ncn4)cc3)cc2C(F)(F)F)n1
5,334 to 335 °C,O=P(O)(O)COc1c(Br)cc(-c2c3ccccc3c(Br)c3sc4ccccc4c23)cc1Br
6,126 to 132 °C,Cc1c(Cc2ccccc2)c(=O)n(Cc2ccc(F)cc2)c2cc(OCc3nnn[nH]3)cc(OCc3nnn[nH]3)c12
7,249 to 253 °C,O=C(Nc1ncc(Br)cn1)c1ccccc1SSc1ccccc1C(=O)Nc1ncc(Br)cn1
8,188 to 189 °C,COc1ccc(S(=O)(=O)Nc2cccnc2Nc2ccc(C)cc2)cc1
9,121 to 122 °C,N/C(=C1/Sc2ccccc2C1=O)c1ccccc1
10,199 to 202 °C,CNc1ccccc1C(=O)N1Cc2ccccc2C(=O)N1
11,146 to 150 °C,COC(=O)c1nc(NC(=O)c2ccccn2)ccc1Oc1nc(OC)cc(OC)n1
12,127 °C,CC#Cc1ccc(-c2ccc(-c3ccc(CCCCC)c(F)c3F)cc2)cc1
13,66 °C,COc1ccc(N=C(C#Cc2ccccc2)N2CCCN(Cc3ccc(C)cc3)CC2)cc1
14,> 250 °C,O=c1[nH]cccc1-c1cccn2nc(Nc3ccc4ncccc4c3)nc12
15,66 to 70 °C,CC1(c2ccc(C#N)cc2)C(=O)N(Cc2ccc(F)cc2)Cc2cncn21 (stereo unspecified)
16,136 °C,Brc1ccc(Cc2cc3ccccc3[nH]2)cc1
17,79 to 80 °C,CC(C)(COc1ccc([N+](=O)[O-])cc1)c1ccccc1
